Assay results published in the supplement of paper PMC7108870.

Legend:
HEK293sieSTAT3(Y640F) [1] = assay: drug sensitivity score (DSS), cytotoxicity CellTox Green (DSS (dimensionless)); higher = more cytotoxic; extreme values may be limits of the assay; details: 72 h; STAT3 variant: Y640F (constitutively active)
Method in brief: (§1)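 Each value is one representative of two experiments in which HEK293 cells overexpressing wild-type or mutant STAT3 with a STAT3-dependent luciferase reporter were exposed to compounds at 5 concentrations (10-fold dilutions) for 72 hours at 37°C and 5% CO2. Readouts were CellTox Green fluorescence and then CellTiter-Glo luminescence, normalised to negative and positive control wells. The drug sensitivity score was based on the dose-response curve area and computed in Breeze.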

HEK293sieSTAT3(wt) [2] = assay: as above; details: 72 h; STAT3 variant: wild type
Method in brief: as §1

HEK293sieSTAT3(Y640F) [3] = assay: drug sensitivity score (DSS), viability CellTiter-Glo (DSS (dimensionless)); higher = more growth inhibition; extreme values may be limits of the assay; details: 72 h; STAT3 variant: Y640F (constitutively active)
Method in brief: as §1

HEK293sieSTAT3(wt) [4] = assay: as above; details: 72 h; STAT3 variant: wild type
Method in brief: as §1

| SMILES | drug sensitivity score (HEK293sieSTAT3(Y640F) [1]) | drug sensitivity score (HEK293sieSTAT3(wt) [2]) | drug sensitivity score (HEK293sieSTAT3(Y640F) [3]) | drug sensitivity score (HEK293sieSTAT3(wt) [4]) |
| --- | --- | --- | --- | --- |
| Clc1ccccc1C(c1ccccc1)(c1ccccc1)n1cccn1 [TRAM-34] (top concentration tested 1000 nM) | 0 | 0 | 1.41 | 1.55 |
| CC(=O)Nc1ccc(C(=O)Nc2ccccc2N)cc1 [Tacedinaline] (top concentration tested 1000 nM) | 0 | 0 | 4.27 | 2.27 |
| C=CC[C@@H]1/C=C(\C)C[C@H](C)C[C@H](OC)[C@H]2O[C@@](O)(C(=O)C(=O)N3CCCC[C@H]3C(=O)O[C@H](/C(C)=C/[C@@H]3CC[C@@H](O)[C@H](OC)C3)[C@H](C)[C@@H](O)CC1=O)[C@H](C)C[C@@H]2OC [Tacrolimus] (top concentration tested 10000 nM) | 0 | 0 | 0.22 | 0.73 |
| Cn1ncnc1[C@H]1c2n[nH]c(=O)c3cc(F)cc(c23)N[C@@H]1c1ccc(F)cc1 [Talazoparib] (top concentration tested 1000 nM) | 1.02 | 5.13 | 15.9 | 16 |
| C[C@@H]1CN(Cc2ccc(F)cc2)[C@@H](C)CN1C(=O)c1cc2c(C(=O)C(=O)N(C)C)cn(C)c2cc1Cl [Talmapimod] (top concentration tested 10000 nM) | 0 | 0 | 3.93 | 1.23 |
| COc1cc(Nc2ncc(F)c(Nc3ccc4c(n3)NC(=O)C(C)(C)O4)n2)cc(OC)c1OC [Tamatinib] (top concentration tested 10000 nM) | 5.91 | 8.52 | 2.55 | 3.72 |
| CC/C(=C(\c1ccccc1)c1ccc(OCCN(C)C)cc1)c1ccccc1 [Tamoxifen] (top concentration tested 10000 nM) | 2.88 | 8.77 | 4.47 | 5.42 |
| COc1cc2c(N3CCN(C(=O)Nc4ccc(OC(C)C)cc4)CC3)ncnc2cc1OCCCN1CCCCC1 [Tandutinib] (top concentration tested 1000 nM) | 0 | 0 | 0.33 | 1.99 |
| C=CCNC1=C2C[C@@H](C)C[C@H](OC)[C@H](O)[C@@H](C)/C=C(\C)[C@H](OC(N)=O)[C@@H](OC)/C=C\C=C(/C)C(=O)NC(=CC1=O)C2=O [Tanespimycin] (top concentration tested 10000 nM) | 7.34 | 12.8 | 22.1 | 22.6 |
| O[C@H]1CC[C@H](Nc2ncc3nc(Nc4c(F)cc(F)cc4F)n([C@H]4CCOC4)c3n2)CC1 [Tanzisertib] (top concentration tested 10000 nM) | 0 | 0 | 0 | 2 |
| C[C@@H](C(=O)O)c1ccc(-c2ccccc2)c(F)c1 [Tarenflurbil] (top concentration tested 10000 nM) | 0 | 0 | 0.09 | 0.56 |
| Cc1nc(-c2cn3c(n2)-c2ccc(-c4cnn(C(C)(C)C(N)=O)c4)cc2OCC3)n(C(C)C)n1 [Taselisib] (top concentration tested 1000 nM) | 0 | 0.54 | 4.03 | 5.32 |
| COc1cccc2c1c(O)c(C(=O)N(C)c1ccc(C(F)(F)F)cc1)c(=O)n2C [Tasquinimod] (top concentration tested 10000 nM) | 0 | 0 | 0 | 5.07 |
| CCN(c1cc(-c2ccc(CN3CCOCC3)cc2)cc(C(=O)NCc2c(C)cc(C)[nH]c2=O)c1C)C1CCOCC1 [Tazemetostat] (top concentration tested 10000 nM) | 0 | 0 | 0 | 1.85 |
| CNC(=O)c1cc(COc2nnc(Nc3ccc(Cl)cc3)c3ccoc23)ccn1 [Telatinib] (top concentration tested 10000 nM) | 0 | 2.32 | 2.07 | 0 |
| Cn1nnc2c(C(N)=O)ncn2c1=O [Temozolomide] (top concentration tested 100000 nM) | 0.32 | 0 | 0 | 0.36 |
| CO[C@H]1C[C@@H]2CC[C@@H](C)[C@@](O)(O2)C(=O)C(=O)N2CCCC[C@H]2C(=O)O[C@H]([C@H](C)C[C@@H]2CC[C@@H](OC(=O)C(C)(CO)CO)[C@H](OC)C2)CC(=O)[C@H](C)/C=C(\C)[C@@H](O)[C@@H](OC)C(=O)[C@H](C)C[C@H](C)/C=C/C=C/C=C/1C [Temsirolimus] (top concentration tested 100 nM) | 0 | 0 | 11.2 | 17.6 |
| COc1cc([C@@H]2c3cc4c(cc3[C@@H](O[C@@H]3O[C@@H]5CO[C@@H](c6cccs6)O[C@H]5[C@H](O)[C@H]3O)[C@H]3COC(=O)[C@H]23)OCO4)cc(OC)c1O [Teniposide] (top concentration tested 10000 nM) | 2.03 | 8.89 | 29 | 29.6 |
| O=C1CCC(N2C(=O)c3ccccc3C2=O)C(=O)N1 (configuration not stated) [Thalidomide] (top concentration tested 10000 nM) | 0 | 0 | 4.79 | 2.38 |
| S=P(N1CC1)(N1CC1)N1CC1 [Thio-TEPA] (top concentration tested 50000 nM) | 0 | 0 | 0.14 | 0.48 |
| Nc1nc2[nH]cnc2c(=S)[nH]1 [Thioguanine] (top concentration tested 10000 nM) | 0 | 1.43 | 9.91 | 9.24 |
| O=c1sn(-c2cccc3ccccc23)c(=O)n1Cc1ccccc1 [Tideglusib] (top concentration tested 3000 nM) | 0 | 0 | 2.47 | 0.7 |

| SMILES | drug sensitivity score (HEK293sieSTAT3(Y640F) [1]) | drug sensitivity score (HEK293sieSTAT3(wt) [2]) | drug sensitivity score (HEK293sieSTAT3(Y640F) [3]) | drug sensitivity score (HEK293sieSTAT3(wt) [4]) |
| --- | --- | --- | --- | --- |
| Cn1cncc1[C@@](N)(c1ccc(Cl)cc1)c1ccc2c(c1)c(-c1cccc(Cl)c1)cc(=O)n2C [Tipifarnib] (top concentration tested 10000 nM) | 1.51 | 6.86 | 12.3 | 14.8 |
| O=C1NC(=O)[C@@H](c2cn3c4c(cccc24)CCC3)[C@@H]1c1c[nH]c2ccccc12 [Tivantinib] (top concentration tested 1000 nM) | 0 | 0.63 | 2.71 | 2.4 |
| COc1cc2nccc(Oc3ccc(NC(=O)Nc4cc(C)on4)c(Cl)c3)c2cc1OC [Tivozanib] (top concentration tested 10000 nM) | 0 | 1.14 | 4.07 | 4.13 |
| C[C@@H]1CCN(C(=O)CC#N)C[C@@H]1N(C)c1ncnc2[nH]ccc12 [Tofacitinib] (top concentration tested 5000 nM) | 0 | 0 | 0.07 | 0 |
| CC[C@@]1(O)C(=O)OCc2c1cc1n(c2=O)Cc2cc3c(CN(C)C)c(O)ccc3nc2-1 [Topotecan] (top concentration tested 10000 nM) | 8.8 | 13 | 28.1 | 27 |
| CN(C)CCOc1ccc(/C(=C(/CCCl)c2ccccc2)c2ccccc2)cc1 [Toremifene] (top concentration tested 10000 nM) | 2.32 | 6.99 | 2.66 | 5.41 |
| CC(C)C[C@@H](C(=O)N[C@H](C(=O)OC1CCCC1)c1ccccc1)[C@H](O)C(=O)NO [Tosedostat] (top concentration tested 10000 nM) | 1.4 | 8.66 | 3.46 | 6.78 |
| Cc1cc(Nc2cc(N3CCN(C)CC3)nc(Sc3ccc(NC(=O)C4CC4)cc3)n2)n[nH]1 [Tozasertib] (top concentration tested 10000 nM) | 0 | 0.22 | 10.3 | 12.1 |
| CC(=O)Nc1cccc(-n2c(=O)n(C3CC3)c(=O)c3c(Nc4ccc(I)cc4F)n(C)c(=O)c(C)c32)c1 [Trametinib] (top concentration tested 250 nM) | 1.69 | 0 | 0 | 0 |
| CC1=C(/C=C/C(C)=C/C=C/C(C)=C/C(=O)O)C(C)(C)CCC1 [Tretinoin] (top concentration tested 10000 nM) | 0 | 0 | 0 | 0 |
| NC(=S)N/N=C/c1ncccc1N [Triapine] (top concentration tested 10000 nM) | 1.5 | 0.84 | 14.7 | 9.19 |
| O=C(CCCCCCC(=O)Nc1ccc([C@H]2O[C@@H](CSc3nc(-c4ccccc4)c(-c4ccccc4)o3)C[C@@H](c3ccc(CO)cc3)O2)cc1)NO [Tubacin] (top concentration tested 10000 nM) | 0.48 | 2.57 | 4.63 | 5.53 |
| CN1CCc2c(c3ccccc3n2Cc2ccc(C(=O)NO)cc2)C1 [Tubastatin A] (top concentration tested 10000 nM) | 5.37 | 7.38 | 8.41 | 8.98 |
| CN[C@@H]1C[C@H]2O[C@@](C)([C@@H]1OC)n1c3ccccc3c3c4c(c5c6ccccc6n2c5c31)C(=O)N[C@H]4O [UCN-01] (top concentration tested 10000 nM) | 3.93 | 9.92 | 28.3 | 29.5 |
| COC(=O)c1ccc2c(c1)[nH]c1ncnc(NCCCN3CCCCC3)c12 [UM729] (top concentration tested 10000 nM) | 0.81 | 4.84 | 8.45 | 6.2 |
| O=C(O)CSc1cc(NS(=O)(=O)c2ccc(Br)cc2)c2ccccc2c1O [UMI-77] (top concentration tested 100000 nM) | 5.23 | 5.12 | 10 | 13.1 |
| COc1cc2c(NC3CCN(C(C)C)CC3)nc(C3CCCCC3)nc2cc1OCCCN1CCCC1 [UNC0638] (top concentration tested 10000 nM) | 6.64 | 7.19 | 5.62 | 7.26 |
| COc1cc2c(NC3CCN(C(C)C)CC3)nc(N3CCC(F)(F)CC3)nc2cc1OCCCN1CCCC1 [UNC0642] (top concentration tested 10000 nM) | 7.41 | 7.38 | 9.29 | 7.97 |
| O=C(c1ccc(C(=O)N2CCC(N3CCCC3)CC2)c(Nc2ccccc2)c1)N1CCC(N2CCCC2)CC1 [UNC1215] (top concentration tested 30000 nM) | 0 | 0 | 0.33 | 0.89 |
| CCCCNc1ncc(C(=O)NCc2ccc(-n3ccnc3)cc2)c(NC2CCC(O)CC2)n1 (configuration not stated) [UNC2881] (top concentration tested 2500 nM) | 0 | 3.59 | 5.94 | 4.52 |
| NC(=O)c1cccc(-c2cccc(OC(=O)NC3CCCCC3)c2)c1 [URB597] (top concentration tested 1000 nM) | 0 | 0 | 0.03 | 0.37 |
